{"source": "patent US11549115B2", "about": "“Compositions and methods for regulated gene expression” (YALE UNIVERSITY, priority 2017, dated 2023)", "key": {"[1]": {"test_system": "Bt::tetR P1TDP^GH023-NanoLuc", "assay": "Fecal luminescence in monocolonized gnotobiotic mice", "format": "in vivo", "procedure": "Germ-free Swiss Webster mice were orally gavaged with 1×10^9 CFU of Bt::tetR P1TDP^GH023-NanoLuc and colonization was allowed to stabilize for at least 7 days prior to the start of the experiment. Fecal pellets were collected every day, and groups of mice were given aTC in the drinking water at various concentrations for 48 hours after stool collection on Day 3 and Day 17. Mice belonging to the same treatment group were co-housed for the duration of the experiment. To obtain samples for luminescence production, fecal pellets and intestinal lumen (˜100-200 mg) were homogenized in 1 mL of 1×PBS with a single 5 mm stainless steel bead using a bead beater (BioSpec Products) at 26° C. for 1 minute on the high setting, followed by vortexing at top speed for 8 minutes. Samples were centrifuged at 500×g for 1 minute to pellet fibrous and insoluble matter. The supernatant was used for CFU determination by plating dilutions on BHI-blood agar plates containing gentamicin and erythromycin, and 500 μL was used for luminescence measurements (described below).\n(§1) The 500 μL collected from the resuspended fecal supernatant was centrifuged at 21,130×g for 3 minutes to pellet bacterial cells, which were then resuspended in 50 μL 1× BugBuster (Novagen) in 1×PBS and lysed by one round of freeze-thaw and 10 minutes of nutation at 26° C. Samples were centrifuged at 21,130×g for 10 minutes at 4° C., and 10 μL of the supernatant was mixed with an equal volume of NanoLuc Reaction Buffer to induce luminescence production. Luminescence was measured after a 5 minute incubation at 26° C. on a plate reader (BioTek Synergy H1) with an integration time of 1 second at a gain setting of 100. Luminescence values were normalized to colony forming units (CFUs) determined by dilution plating of the resuspended fecal supernatant on BHI-blood agar plates containing gentamicin and erythromycin."}, "[2]": {"test_system": "Bt::tetR P1TDP^GH023-NanoLuc", "format": "in vivo, mice", "procedure": "8-10 week old SPF Rag^−/− mice (Jackson Laboratories) (n=7) were colonized by oral gavage with 1×10^9 CFU of B. thetaiotaomicron TetR-P1TDP^GH023-NanoLuc. Fecal pellets were collected daily after gavage and processed as described above. The supernatant was used for CFU determination by plating dilutions on BHI-blood agar plates containing gentamicin and erythromycin, and 500 μL was used for luminescence measurements (described below).\nas §1"}, "[3]": {"assay": "LC-MS quantification of aTC in fecal pellets", "format": "in vivo, mice", "procedure": "Germ-free Swiss Webster mice were maintained in flexible plastic gnotobiotic isolators with a 12-hour light/dark cycle and provided a standard, autoclaved mouse chow (5K67 LabDiet, Purina) ad libitum and autoclaved water for the duration of the experiment. Filter-sterilized aTC was added to drinking water stored in red-tinted bottles (Ancare, #PC9RH8.5RD) to inhibit degradation by light. Mice were co-housed for the duration of the experiments. Cage changes were always carried out when aTC was withdrawn from drinking water. Fecal and luminal samples were collected and processed in 2.0 mL screw cap tubes (Axygen Scientific; #SCT-200-C). Germ free status was monitored by 16S rDNA-targeted PCR of fecal DNA and anaerobic and aerobic culture of fecal samples.\nGroups of 6 germ-free Swiss Webster mice were orally gavaged with 1×10^9 CFU of the desired B. thetaiotaomicron strain. Fecal samples (˜100-200 mg) were collected daily for 12 days. aTC (100 μg/mL) was administered in drinking water for 12 hours after fecal collection on day 1. Fecal samples were homogenized in 1 mL of 1× tris-buffered saline (TBS) with a single 5 mm stainless steel bead using a bead beater (BioSpec Products) at 26° C. for 1 minute on the high setting, followed by vortexing at top speed for 8 minutes. Samples were then centrifuged at 500×g for 1 minute to pellet fibrous and insoluble matter. Bacterial cells from 600 μL of the supernatant was isolated through centrifugation at 21,130×g for 3 minutes, resuspended in 50 μL of Sialidase Reaction buffer (50 mM Tris-HCl pH 7.0, 5 mM EDTA) containing 1× BugBuster, and stored at −80° C. for ex vivo sialidase measurements (described below).\nTo the remaining material, 400 mg of 0.1 mm glass beads was added and further homogenized by bead beating for 2 minutes. Insoluble material was pelleted by centrifuging the sample for 3 minutes at 21,130×g, and 20 μL of the supernatant was used for mass spectrometry measurements of sialic acid and aTC by liquid chromatography coupled tandem mass spectrometry (QqQ) and mass spectrometry (qTOF), respectively.\nFor aTC measurements, 5 μL of internal standard solution (0.25 μM sulfamethoxazole and caffeine in H2O) were added to each sample (20 μL) and further processed as described above. Dried samples were re-suspended in 4 μL methanol and diluted in 12 μL H2O. Chromatographic separation was performed on a C18 Kinetex Evo column (Phenomenex, 100 mm×2.1 mm, 1.7 μm particle size) using mobile phase A: H2O, 0.1% formic acid and B: methanol, 0.1% formic acid at 45° C. 10 μL of sample were injected at 100% A and 0.4 mL/min flow followed by a linear gradient to 95% B over 5.5 min and 0.4 mL/min flow leading to aTC, caffeine and sulfamethoxazole elution at 3.0, 1.9, 2.1 min, respectively. The qTOF was operated in positive scanning mode (50-1000 m/z) and the following source parameters: VCap: 3500 V, nozzle voltage: 2000 V, gas temp: 225° C.; drying gas 13 L/min; nebulizer: 20 psig; sheath gas temp 225° C.; sheath gas flow 12 L/min. Online mass calibration was performed using a second ionization source and a constant flow (5 μL/min) of reference solution (121.0509 and 922.0098 m/z). Compounds were identified based on the retention time of chemical standards and their accurate mass (tolerance 20 ppm). The MassHunter Quantitative Analysis Software (Agilent, version 7.0) was used for peak integration and quantification was based on calibration curves using chemical standards and the signal intensity of the internal standard spiked into each sample."}, "[4]": {"settings": "12 hours of aTC (100 μg/mL) via drinking water"}}}
{"molecule": "Cc1c2c(c(O)c3c(O)cccc13)C(=O)[C@]1(O)C(=O)C(C(N)=O)=C(O)[C@@H](N(C)C)[C@@H]1C2", "note": "[aTC, Anhydrotetracycline]", "values": [{"measurement": "impact on B. thetaiotaomicron stability in the gut", "setting": "[1]; CFU", "value": "do not impact B. thetaiotaomicron stability in the gut"}, {"measurement": "aTC concentration at which detectable responses start", "setting": "[1]; drinking water, within 24 hours", "value": "0.2 to 0.5", "unit": "µg/mL"}, {"measurement": "complete repression after aTC removal", "setting": "[1]; monocolonized mice", "value": 9, "unit": "days"}, {"measurement": "increase of luminescence in fecal pellets", "setting": "[1]; monocolonized mice, within 24 hours of aTC addition", "value": "~1,000 fold"}, {"measurement": "range of commensal gene expression modulated inside the gut by varying aTC concentrations", "setting": "[1]; mouse, in vivo", "value": "3 orders of magnitude"}, {"measurement": "aTC concentration providing maximal gene induction in vivo", "setting": "[1]; sigmoidal fit", "value": 100, "unit": "µg/mL"}, {"measurement": "return of fecal luminescence to baseline after aTC removal", "setting": "[2]; SPF Rag-/- mice", "value": 3, "unit": "days"}, {"measurement": "increase in fecal luminescence", "setting": "[2]; SPF Rag-/- mice, aTC in drinking water for 48 hours", "value": "4,800 fold"}, {"measurement": "effect on stability of B. thetaiotaomicron in a complete murine microbiota", "setting": "[2]; mouse, in vivo", "value": "does not affect the stability of B. thetaiotaomicron"}, {"measurement": "growth of Bacteroides in aTC", "setting": "Bacteroides", "value": "grow at wildtype rates"}, {"measurement": "time to spike of inducer levels in fecal pellets", "setting": "[3]; [4]", "value": "≤ 12", "unit": "h"}, {"measurement": "time to undetectable after the spike", "setting": "[3]; [4]", "value": 24, "unit": "h"}, {"measurement": "half-life", "setting": "[3]; Swiss Webster, mouse, faeces, oral, fecal pellets, gnotobiotic mice with wildtype B. thetaiotaomicron, 100 μg/mL in drinking water for 4 days, read-out: half-life in vivo (converted)", "value": 19, "unit": "h"}, {"measurement": "degradation by B. thetaiotaomicron in vivo", "setting": "[3]; comparison with germfree mice", "value": "does not degrade aTC in vivo"}, {"measurement": "time to detection after addition to drinking water", "setting": "[3]; fecal pellets, 100 μg/mL", "value": "≤ 24", "unit": "h"}, {"measurement": "time to undetectable after removal from the water", "setting": "[3]; fecal pellets, 100 μg/mL for 4 days", "value": 6, "unit": "days"}]}
